Source: patent publication US5674979A, “Agent for inhibiting symmetrical proteins, in particular enzymes” (priority 1989, dated 1997)
Read-outs that look alike come from different tables or passages of the source.

Tests used:
[1] = system: HIV-1; details: H9 cells
Protocol: Compounds (a), (b), (c), (d) were tested in the molarity range from 0.1 μM to 1000 μM. Infectivity tests were carried out as follows: an HIV-1 suspension containing 10^2 infectious units was absorbed on to 5×10^6 H9 cells in a volume of 1 ml for 2 hours at 4° C. After this time, 9 ml of tissue culture medium with the required inhibitor concentration was added. The medium was exchanged with fresh medium plus inhibitor daily. Two control cultures were also prepared, one without inhibitor to determine the normal virus replication rate, the other containing inhibitor but no virus, to determine whether the substances were cytotoxic for H9 cells. […] The amount of virus antigen produced by the infected cells was measured daily using Elisa for eight days, indicating the amount of HIV-1 antigen in the tissue culture medium. After this, the cells were pelleted, washed in medium without inhibitor, and further incubated in inhibitor-less medium. The antigen production was measured on days 9 and 12 (ie 1 and […] after removal of the inhibitor). Virus production was also measured on days 7, 8, 9, and 12 by determining the amount of reverse transcriptase in the supernatant of the cell medium.

[2] = system: HIV-1
Protocol: Infectivity tests were carried out as follows: an HIV-1 suspension containing 10^2 infectious units was absorbed on to 5×10^6 H9 cells in a volume of 1 ml for 2 hours at 4° C. After this time, 9 ml of tissue culture medium with the required inhibitor concentration was added. The medium was exchanged with fresh medium plus inhibitor daily. Two control cultures were also prepared, one without inhibitor to determine the normal virus replication rate, the other containing inhibitor but no virus, to determine whether the substances were cytotoxic for H9 cells. […] The amount of virus antigen produced by the infected cells was measured daily using Elisa for eight days, indicating the amount of HIV-1 antigen in the tissue culture medium. After this, the cells were pelleted, washed in medium without inhibitor, and further incubated in inhibitor-less medium. The antigen production was measured on days 9 and 12 (ie 1 and 3 days after removal of the inhibitor). Virus production was also measured on days 7, 8, 9, and 12 by determining the amount of reverse transcriptase in the supernatant of the cell medium.

[3] = 0,1 μM, day 9 post infection, no inhibitor (after removal)
[4] = 0,1 μM, day 12 post infection, no inhibitor (after removal)
[5] = 1 μM, day 9 post infection, no inhibitor (after removal)
[6] = 1 μM, day 12 post infection, no inhibitor (after removal)
[7] = 10 μM, day 9 post infection, no inhibitor (after removal)
[8] = 10 μM, day 12 post infection, no inhibitor (after removal)
[9] = 100 μM, day 9 post infection, no inhibitor (after removal)
[10] = 100 μM, day 12 post infection, no inhibitor (after removal)
[11] = 1000 μM, day 9 post infection, no inhibitor (after removal)
[12] = 1000 μM, day 12 post infection, no inhibitor (after removal)

CC(C)C[C@H](NC(=O)OC(C)(C)C)C(=O)NCC(O)CC(=O)O (stereo partly drawn) [B, t-BOC-L-Leu-NH--CH2 --CHOH--CH2 --COOH]
HIV-1 antigen production as measured in antigen capture ELISA ([1]; 0,1 μM, day 1 post infection): 0,061 o. D.
HIV-1 antigen production as measured in antigen capture ELISA ([1]; 0,1 μM, day 2 post infection): 0,063 o. D.
HIV-1 antigen production as measured in antigen capture ELISA ([1]; 0,1 μM, day 3 post infection): 0,039 o. D.
HIV-1 antigen production as measured in antigen capture ELISA ([1]; 0,1 μM, day 4 post infection): 0,063 o. D.
HIV-1 antigen production as measured in antigen capture ELISA ([1]; 0,1 μM, day 5 post infection): 0,055 o. D.
HIV-1 antigen production as measured in antigen capture ELISA ([1]; 0,1 μM, day 6 post infection): 0,149 o. D.
HIV-1 antigen production as measured in antigen capture ELISA ([1]; 0,1 μM, day 7 post infection): 0,389 o. D.
HIV-1 antigen production as measured in antigen capture ELISA ([1]; 0,1 μM, day 8 post infection): 0,232 o. D.
HIV-1 antigen production as measured in antigen capture ELISA [1, 3]: 0,700 o. D.
HIV-1 antigen production as measured in antigen capture ELISA [1, 4]: 1,047 o. D.
HIV-1 antigen production as measured in antigen capture ELISA ([1]; 1 μM, day 1 post infection): 0,063 o. D.
HIV-1 antigen production as measured in antigen capture ELISA ([1]; 1 μM, day 2 post infection): 0,060 o. D.
HIV-1 antigen production as measured in antigen capture ELISA ([1]; 1 μM, day 3 post infection): 0,061 o. D.
HIV-1 antigen production as measured in antigen capture ELISA ([1]; 1 μM, day 4 post infection): 0,050 o. D.
HIV-1 antigen production as measured in antigen capture ELISA ([1]; 1 μM, day 5 post infection): 0,052 o. D.
HIV-1 antigen production as measured in antigen capture ELISA ([1]; 1 μM, day 6 post infection): 0,105 o. D.
HIV-1 antigen production as measured in antigen capture ELISA ([1]; 1 μM, day 7 post infection): 0,186 o. D.
HIV-1 antigen production as measured in antigen capture ELISA ([1]; 1 μM, day 8 post infection): 0,237 o. D.
HIV-1 antigen production as measured in antigen capture ELISA [1, 5]: 0,745 o. D.
HIV-1 antigen production as measured in antigen capture ELISA [1, 6]: 0,970 o. D.
HIV-1 antigen production as measured in antigen capture ELISA ([1]; 10 μM, day 1 post infection): 0,063 o. D.
HIV-1 antigen production as measured in antigen capture ELISA ([1]; 10 μM, day 2 post infection): 0,060 o. D.
HIV-1 antigen production as measured in antigen capture ELISA ([1]; 10 μM, day 3 post infection): 0,059 o. D.
HIV-1 antigen production as measured in antigen capture ELISA ([1]; 10 μM, day 4 post infection): 0,047 o. D.
HIV-1 antigen production as measured in antigen capture ELISA ([1]; 10 μM, day 5 post infection): 0,055 o. D.
HIV-1 antigen production as measured in antigen capture ELISA ([1]; 10 μM, day 6 post infection): 0,087 o. D.
HIV-1 antigen production as measured in antigen capture ELISA ([1]; 10 μM, day 7 post infection): 0,303 o. D.
HIV-1 antigen production as measured in antigen capture ELISA ([1]; 10 μM, day 8 post infection): 0,342 o. D.
HIV-1 antigen production as measured in antigen capture ELISA [1, 7]: 0,645 o. D.
HIV-1 antigen production as measured in antigen capture ELISA [1, 8]: 1,038 o. D.
HIV-1 antigen production as measured in antigen capture ELISA ([1]; 100 μM, day 1 post infection): 0,068 o. D.
HIV-1 antigen production as measured in antigen capture ELISA ([1]; 100 μM, day 2 post infection): 0,070 o. D.
HIV-1 antigen production as measured in antigen capture ELISA ([1]; 100 μM, day 3 post infection): 0,063 o. D.
HIV-1 antigen production as measured in antigen capture ELISA ([1]; 100 μM, day 4 post infection): 0,052 o. D.
HIV-1 antigen production as measured in antigen capture ELISA ([1]; 100 μM, day 5 post infection): 0,052 o. D.
HIV-1 antigen production as measured in antigen capture ELISA ([1]; 100 μM, day 6 post infection): 0,099 o. D.
HIV-1 antigen production as measured in antigen capture ELISA ([1]; 100 μM, day 7 post infection): 0,359 o. D.
HIV-1 antigen production as measured in antigen capture ELISA ([1]; 100 μM, day 8 post infection): 0,260 o. D.
HIV-1 antigen production as measured in antigen capture ELISA [1, 9]: 0,890 o. D.
HIV-1 antigen production as measured in antigen capture ELISA [1, 10]: 0,960 o. D.
HIV-1 antigen production as measured in antigen capture ELISA ([1]; 1000 μM, day 1 post infection): 0,076 o. D.
HIV-1 antigen production as measured in antigen capture ELISA ([1]; 1000 μM, day 2 post infection): 0,068 o. D.
HIV-1 antigen production as measured in antigen capture ELISA ([1]; 1000 μM, day 3 post infection): 0,050 o. D.
HIV-1 antigen production as measured in antigen capture ELISA ([1]; 1000 μM, day 4 post infection): 0,050 o. D.
HIV-1 antigen production as measured in antigen capture ELISA ([1]; 1000 μM, day 5 post infection): 0,063 o. D.
HIV-1 antigen production as measured in antigen capture ELISA ([1]; 1000 μM, day 6 post infection): 0,075 o. D.
HIV-1 antigen production as measured in antigen capture ELISA ([1]; 1000 μM, day 7 post infection): 0,279 o. D.
HIV-1 antigen production as measured in antigen capture ELISA ([1]; 1000 μM, day 8 post infection): 0,577 o. D.
HIV-1 antigen production as measured in antigen capture ELISA [1, 11]: 0,811 o. D.
HIV-1 antigen production as measured in antigen capture ELISA [1, 12]: 1,050 o. D.
Reverse Transkriptase Determination ([2]; 0,1 μM, day 7 post infection): 2099 epm/ml
Reverse Transkriptase Determination ([2]; 0,1 μM, day 8 post infection): 3091 epm/ml
Reverse Transkriptase Determination [2, 3]: 6180 epm/ml
Reverse Transkriptase Determination [2, 4]: 106830 epm/ml
Reverse Transkriptase Determination ([2]; 1 μM, day 7 post infection): 6105 epm/ml
Reverse Transkriptase Determination ([2]; 1 μM, day 8 post infection): 3006 epm/ml
Reverse Transkriptase Determination [2, 5]: 8474 epm/ml
Reverse Transkriptase Determination [2, 6]: 92020 epm/ml
Reverse Transkriptase Determination ([2]; 10 μM, day 7 post infection): 4614 epm/ml
Reverse Transkriptase Determination ([2]; 10 μM, day 8 post infection): 4188 epm/ml
Reverse Transkriptase Determination [2, 7]: 7187 epm/ml
Reverse Transkriptase Determination [2, 8]: 164920 epm/ml
Reverse Transkriptase Determination ([2]; 100 μM, day 7 post infection): 4033 epm/ml
Reverse Transkriptase Determination ([2]; 100 μM, day 8 post infection): 4418 epm/ml
Reverse Transkriptase Determination [2, 9]: 6575 epm/ml
Reverse Transkriptase Determination [2, 10]: 125290 epm/ml
Reverse Transkriptase Determination ([2]; 1000 μM, day 7 post infection): 3441 epm/ml
Reverse Transkriptase Determination ([2]; 1000 μM, day 8 post infection): 3159 epm/ml
Reverse Transkriptase Determination [2, 11]: 5503 epm/ml
Reverse Transkriptase Determination [2, 12]: 149020 epm/ml
